# Patent US8426446B2, “Acrylamide derivative and use thereof in manufacture of medicament” (Beijing Shiqiao Biopharm Co. Ltd., priority 2009, dated 2013)
# System: Human Leukemia Cell K562
# Assay: Inhibitory effects on Human Leukemia Cell K562 (MTT)
# Assay type: cell-based
# Details: Homo sapiens, K562 cells, 72 h~120 h
# Procedure: K562 cells were seeded in RPMI1640 cell culture solution containing 10% of fetal calf serum (supplemented with 100 ku/L of penicillin and streptomycin each). Culture dish was placed in the cell incubator under 5% of CO2 at 37° C. The culture solution was centrifuged and replaced every 2-3 days to passage and collect cells.
# Cells in logarithmic growth phase were formulated into the cell suspensions at the required concentration with RPMI1640 culture solution containing 10% fetal calf serum. The resulting mixture was added to 96-wells cell culture plate at 3,000 cells per well (100 μl); after 12 hours of culture, to each well was added different amount of stock solution. The final concentrations of the samples are 100 μg/ml, 10 μg/ml, 1 μg/ml, […], and 0.01 μg/ml respectively in triplicate. After 72 h˜120 h, supernatant was discarded. To each well was added […] fresh serum-free culture solution containing 5 mg/ml blue tetrazolium (MTT). After culturing for 4 hours at 37° C., the mixture was centrifuged at 3000 rpm/min and the supernatant was discarded. Formazan was dissolved with 200 μl DMSO. After vortex oscillation for 1 min, absorbance value (OD-value) was measured on microplate reader at the wavelength of 570/450 nm. Inhibition ratio=(control group OD-value−drug group OD-value)/control group OD-value×100%.
row,SMILES,IC50 [nM]
1,Cc1ccc(NC(=O)c2ccc(CN3C[C@@H](C)N[C@@H](C)C3)cc2)cc1NC(=O)/C=C/c1cccnc1 [compound 12],< 5
2,"CCN1CCN(Cc2ccc(C(=O)Nc3ccc(C)c(NC(=O)/C=C/c4cccnc4)c3)cc2)CC1 [compound 13, N-(4-methyl-3-(3-(pyridin-3-yl)acrylamido)phenyl)-4-((4-ethylpiperazin-1-yl)methyl)benzamide]",2
3,"Cc1ccc(NC(=O)c2ccc(CN3CCN(C)CC3)c(C(F)(F)F)c2)cc1NC(=O)/C=C/c1cccnc1 [compound 19, N-(4-methyl-3-(3-(pyridin-3-yl)acrylamido)phenyl)-4-((4-methylpiperazin-1-yl)methyl)-3-(trifluoromethyl)benzamide]",< 1
4,"CCN1CCN(Cc2ccc(C(=O)Nc3ccc(C)c(NC(=O)/C=C/c4cccnc4)c3)cc2C(F)(F)F)CC1 [compound 20, N-(4-methyl-3-(3-(pyridin-3-yl)acrylamido)phenyl)-4-((4-ethylpiperazin-1-yl)methyl)-3-(trifluoromethyl)benzamide]",< 1
5,"Cc1ccc(NC(=O)c2ccc(CN3CCOCC3)c(C(F)(F)F)c2)cc1NC(=O)/C=C/c1cccnc1 [compound 21, N-(4-methyl-3-(3-(pyridin-3-yl)acrylamido)phenyl)-4-(morpholin-4-ylmethyl)-3-(trifluoromethyl)benzamide]",2
6,"Cc1ccc(NC(=O)c2ccc(CN3CC[C@@H](N(C)C)C3)c(C(F)(F)F)c2)cc1NC(=O)/C=C/c1cccnc1 [compound 22, N-(4-methyl-3-(3-(pyridin-3-yl)acrylamido)phenyl)-4-(((R)-3-(dimethylamino)pyrrolidin-1-yl)methyl)-3-(trifluoromethyl)benzamide]",< 1
7,"Cc1ccc(NC(=O)c2ccc(CN3CCC(N(C)C)C3)c(C(F)(F)F)c2)cc1NC(=O)/C=C/c1cccnc1 [compound 23, N-(4-methyl-3-(3-(pyridin-3-yl)acrylamido)phenyl)-4-(((S)-3-(dimethylamino)pyrrolidin-1-yl)methyl)-3-(trifluoromethyl)benzamide]",< 1
8,"Cc1ccc(NC(=O)c2ccc(CN3CCCN(C)CC3)c(C(F)(F)F)c2)cc1NC(=O)/C=C/c1cccnc1 [compound 25, N-(4-methyl-3-(3-(pyridin-3-yl)acrylamido)phenyl)-4-((4-methyl-1,4-homopiperazin-1-yl)methyl)-3-(trifluoromethyl)benzamide]",2 to 20
9,"Cc1ccc(NC(=O)c2cc(C(F)(F)F)cc(C(F)(F)F)c2)cc1NC(=O)/C=C/c1cncnc1 [compound 31, N-(4-methyl-3-(3-(pyrimidin-5-yl)acrylamido)phenyl)-3,5-bis-(trifluoromethyl)benzamide]",< 1
10,"Cc1ccc(NC(=O)c2ccc(C)c(C(F)(F)F)c2)cc1NC(=O)/C=C/c1cncnc1 [compound 32, N-(4-methyl-3-(3-(pyrimidin-5-yl)acrylamido)phenyl)-4-methyl-3-(trifluoromethyl)benzamide]",< 1
11,"Cc1ccc(NC(=O)c2cc(F)cc(C(F)(F)F)c2)cc1NC(=O)/C=C/c1cncnc1 [compound 33, N-(4-methyl-3-(3-(pyrimidin-5-yl)acrylamido)phenyl)-5-fluoro-3-(trifluoromethyl)benzamide]",< 1
12,"Cc1ccc(NC(=O)c2ccc(CN3CCN(C)CC3)c(C(F)(F)F)c2)cc1NC(=O)/C=C/c1cncnc1 [compound 39, N-(4-methyl-3-(3-(pyrimidin-5-yl)acrylamido)phenyl)-4-((4-methylpiperazin-1-yl)methyl)-3-(trifluoromethyl)benzamide]",< 1
13,"Cc1ccc(NC(=O)c2ccc(CN3CC[C@@H](N(C)C)C3)c(C(F)(F)F)c2)cc1NC(=O)/C=C/c1cncnc1 [compound 42, N-(4-methyl-3-(3-(pyrimidin-5-yl)acrylamido)phenyl)-4-(((R)-3-(dimethylamino)pyrrolidin-1-yl)methyl)-3-(trifluoromethyl)benzamide]",< 1
14,"Cc1ccc(NC(=O)c2ccc(CN3CCC(N(C)C)C3)c(C(F)(F)F)c2)cc1NC(=O)/C=C/c1cncnc1 [compound 43, N-(4-methyl-3-(3-(pyrimidin-5-yl)acrylamido)phenyl)-4-(((S)-3-(dimethylamino)pyrrolidin-1-yl)methyl)-3-(trifluoromethyl)benzamide]",< 1

# Next, values leading:
row,IC50 [nM],SMILES
1,< 2.7,"Cc1ccc(C(=O)Nc2ccc(C)c(NC(=O)/C=C/c3cccnc3)c2)cc1 [compound 1, N-(4-methyl-3-(3-(pyridin-3-yl)acrylamido)phenyl)-4-methylbenzamide]"
2,< 2.7,"Cc1ccc(NC(=O)c2ccc(F)cc2)cc1NC(=O)/C=C/c1cccnc1 [compound 2, N-(4-methyl-3-(3-(pyridin-3-yl)acrylamido)phenyl)-4-fluoro benzamide]"
3,< 2.5,"Cc1ccc(NC(=O)c2ccc(F)cc2F)cc1NC(=O)/C=C/c1cccnc1 [compound 3, N-(4-methyl-3-(3-(pyridin-3-yl)acrylamido)phenyl)-2,4-difluoro benzamide]"
4,2 to 20,"Cc1ccc(NC(=O)c2ccc(Cl)cc2Cl)cc1NC(=O)/C=C/c1cccnc1 [compound 4, N-(4-methyl-3-(3-(pyridin-3-yl)acrylamido)phenyl)-2,4-dichloro benzamide]"
5,1 to 20,"Cc1ccc(NC(=O)c2cc(C(F)(F)F)cc(C(F)(F)F)c2)cc1NC(=O)/C=C/c1cccnc1 [compound 5, N-(4-methyl-3-(3-(pyridin-3-yl)acrylamido)phenyl)-3,5-bis-(trifluoromethyl)benzamide]"
6,< 1,"Cc1ccc(NC(=O)c2ccc(C)c(C(F)(F)F)c2)cc1NC(=O)/C=C/c1cccnc1 [compound 7, N-(4-methyl-3-(3-(pyridin-3-yl)acrylamido)phenyl)-3-(rifluoromethyl)-4-methyl benzamide]"
7,< 1,"Cc1ccc(NC(=O)c2cc(F)cc(C(F)(F)F)c2)cc1NC(=O)/C=C/c1cccnc1 [compound 10, N-(4-methyl-3-(3-(pyridin-3-yl)acrylamido)phenyl)-3-fluoro-5-(trifluoromethyl)benzamide]"
8,< 2,"Cc1ccc(NC(=O)c2ccc(CN3CCN(C)CC3)cc2)cc1NC(=O)/C=C/c1cccnc1 [compound 11, N-(4-methyl-3-(3-(pyridin-3-yl)acrylamido)phenyl)-4-((4-methylpiperazin-1-yl)methyl)benzamide]"
9,2 to 20,"Cc1ccc(NC(=O)c2ccc(CN3CCN(C)CC3)c(Br)c2)cc1NC(=O)/C=C/c1cccnc1 [compound 26, N-(4-methyl-3-(3-(pyridin-3-yl)acrylamido)phenyl)-4-((4-dimethylpiperazin-1-yl)methyl)-3-bromobenzamide]"
10,2 to 20,"Cc1ccc(C(=O)Nc2ccc(F)c(Cl)c2)cc1NC(=O)/C=C/c1cccnc1 [compound 50, N-(3-chloro-4-fluorophenyl)-4-methyl-3-(3-(pyridin-3-yl)acrylamido)benzamide]"
11,< 2,"Cc1ccc(C(=O)Nc2cccc(C(F)(F)F)c2)cc1NC(=O)/C=C/c1cccnc1 [compound 51, N-(3-(trifluoromethyl)phenyl)-4-methyl-3-(3-(pyridin-3-yl)acrylamido)benzamide]"
12,< 2,"Cc1ccc(C(=O)Nc2ccc(Br)cc2F)cc1NC(=O)/C=C/c1cccnc1 [compound 52, N-(4-bromo-2-fluorophenyl)-4-methyl-3-(3-(pyridin-3-yl)acrylamido)benzamide]"
13,< 1,"Cc1ccc(C(=O)Nc2ccc(OC(F)(F)F)cc2)cc1NC(=O)/C=C/c1cccnc1 [compound 53, N-(4-(trifluoromethoxy)phenyl)-4-methyl-3-(3-(pyridin-3-yl)acrylamido)benzamide]"
14,< 2,"Cc1cn(-c2ccc(NC(=O)c3ccc(C)c(NC(=O)/C=C/c4cccnc4)c3)cc2C(F)(F)F)cn1 [compound 55, N-(4-(4-methyl-1H-imidazol-1-yl)-3-(trifluoromethyl)phenyl)-4-methyl-3-(3-(pyridin-3-yl)acrylamido)benzamide]"
15,2 to 20,"Cc1ccc(C(=O)Nc2ccc(Cl)c(Cl)c2)cc1NC(=O)/C=C/c1cccnc1 [compound 56, N-(3,4-dichlorophenyl)-4-methyl-3-(3-(pyridin-3-yl)acrylamido)benzamide]"
16,2 to 20,"Cc1ccc(C(=O)Nc2cc(C(F)(F)F)ccc2Cl)cc1NC(=O)/C=C/c1cccnc1 [compound 57, N-(2-chloro-5-(trifluoromethyl)phenyl)-4-methyl-3-(3-(pyridin-3-yl)acrylamido)benzamide]"
17,< 1,"Cc1ccc(C(=O)Nc2ccc(Cl)c(C(F)(F)F)c2)cc1NC(=O)/C=C/c1cccnc1 [compound 58, N-(4-chloro-3-(trifluoromethyl)phenyl)-4-methyl-3-(3-(pyridin-3-yl)acrylamido)benzamide]"

# Same assay, conditions: K562 cells, 72 h~120 h
row,IC50 [nM],SMILES
1,< 1,"Cc1ccc(NC(=O)c2ccc(CN3CCC(N(C)C)C3)c(C(F)(F)F)c2)cc1NC(=O)/C=C/c1cccnc1 (stereo not drawn) [compound 24, N-(4-methyl-3-(3-(pyridin-3-yl)acrylamido)phenyl)-4-((3-(dimethylamino)pyrrolidin-1-yl)methyl)-3-(trifluoromethyl)benzamide]"
2,< 1,"Cc1ccc(NC(=O)c2ccc(CN3CCC(N(C)C)C3)c(C(F)(F)F)c2)cc1NC(=O)/C=C/c1cncnc1 (stereo not drawn) [compound 44, N-(4-methyl-3-(3-(pyrimidin-5-yl)acrylamido)phenyl)-4-((3-(dimethylamino)pyrrolidin-1-yl)methyl)-3-(trifluoromethyl)benzamide]"
